# According to patent publication US10669258B2, “3-sulfonyl-5-aminopyridine-2,4-diol APJ agonists” (BRISTOL-MYERS SQUIBB COMPANY, priority 2016, dated 2020):
# Like-named read-outs stand apart in the source and are kept apart here.
# Target: T1, human APJ receptor (Homo sapiens, UniProt P35414)
# T1 construct: expressed in transfected cells; host or cells: HEK293
# T1 sequence (P35414 1-380): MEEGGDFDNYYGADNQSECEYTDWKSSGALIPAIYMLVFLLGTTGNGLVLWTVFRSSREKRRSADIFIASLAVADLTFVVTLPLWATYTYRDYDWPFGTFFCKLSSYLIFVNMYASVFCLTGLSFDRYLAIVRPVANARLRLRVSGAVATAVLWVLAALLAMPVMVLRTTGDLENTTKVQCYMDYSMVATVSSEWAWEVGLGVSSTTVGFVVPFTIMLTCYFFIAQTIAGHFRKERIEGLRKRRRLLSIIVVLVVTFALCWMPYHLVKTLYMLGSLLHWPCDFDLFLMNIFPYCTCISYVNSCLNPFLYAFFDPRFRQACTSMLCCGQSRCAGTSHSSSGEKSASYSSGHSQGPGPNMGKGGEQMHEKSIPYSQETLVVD
# Assay: Intracellular cAMP accumulation assay (APJ hcAMP, HTRF)
# Assay type: cell-based
# Conditions: HEK293 cells stably expressing human APJ receptor, inhibition of forskolin-mediated cAMP production
# Method in brief: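 Inhibition of forskolin (2 μM)-driven cAMP, with […], measured by HTRF after 30 min room-temperature compound exposure of stably transfected HEK293 cells. cAMP read from a standard curve; variable-slope fit gives EC50, and maximal inhibition is normalised to (Pyr1)apelin-13 as 100%.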
# [1] = Table 1, read-out: hAPJ cAMP EC50 Potency range
# [2] = hAPJ cAMP EC50 Potency range, Table 1
# [3] = read-out: Human APJ cAMP Potency range
SMILES,EC50 [1] [nM],other results
"CCCCc1nc(O)c(S(=O)(=O)c2ccc(-c3ccccc3C(=O)NC)cc2)c(O)c1N1CCCc2ccccc21 [Example 061, 4′-((6-butyl-5-(3,4-dihydroquinolin-1(2H)-yl)-2,4-dihydroxypyridin-3-yl)sulfonyl)-N-methyl-[1,1′-biphenyl]-2-carboxamide]",0.01 to 10,–
"CCN(c1ccccc1)c1c(-c2ccn(C)n2)nc(O)c(S(=O)(=O)c2ccc(-c3ccccc3C(=O)N(C)C)cc2)c1O [Example 060, 4′-((5-(ethyl(phenyl)amino)-2,4-dihydroxy-6-(1-methyl-1H-pyrazol-3-yl)pyridin-3-yl)sulfonyl)-N,N-dimethyl-[1,1′-biphenyl]-2-carboxamide]",0.01 to 10,–
"CCN(c1cccc(C#N)c1)c1c(-c2ccn(C)n2)nc(O)c(S(=O)(=O)c2ccc(-c3ccnc(F)c3C)cc2)c1O [Example 211, 3-(ethyl(5-((4-(2-fluoro-3-methylpyridin-4-yl)phenyl)sulfonyl)-4,6-dihydroxy-2-(1-methyl-1H-pyrazol-3-yl)pyridin-3-yl)amino)benzonitrile]",0.01 to 10,–
"CCCCc1nc(O)c(S(=O)(=O)c2ccc(-c3ccnc(F)c3C)cc2)c(O)c1N1CCCCC1c1ccccc1 (centres unmarked) [Example 128, 6-butyl-3-((4-(2-fluoro-3-methylpyridin-4-yl)phenyl)sulfonyl)-5-(2-phenylpiperidin-1-yl)pyridine-2,4-diol]",10 to 100,–
"CCCCc1nc(O)c(C(=O)N2CCC(c3ncc(F)cc3F)C2)c(O)c1N(CC)c1ccccc1 (centres unmarked) [Example 071, (6-butyl-5-(ethyl(phenyl)amino)-2,4-dihydroxypyridin-3-yl)(3-(3,5-difluoropyridin-2-yl)pyrrolidin-1-yl)methanone]",–,EC50 [2]: 0.01 to 10 nM
CCN(c1cccc(C#N)c1)c1c(-c2ccn(C)n2)nc(O)c(S(=O)(=O)c2ccc(-c3cccnc3C)cc2)c1O [Example 217],0.01 to 10,–
"CCCCc1nc(O)c(C(=O)N2CC[C@H](c3ccccc3)C2)c(O)c1N(CC)c1ccccc1 [Example 066, (R)-(6-butyl-5-(ethyl(phenyl)amino)-2,4-dihydroxypyridin-3-yl)(3-phenylpyrrolidin-1-yl)methanone]",–,EC50 [2]: 10 to 100 nM
"CCN(c1ccccc1)c1c(-c2cccc(C)c2)nc(O)c(S(=O)(=O)c2ccc(Br)cc2)c1O [Example 131, 3-((4-bromophenyl)sulfonyl)-5-(ethyl(phenyl)amino)-6-(m-tolyl)pyridine-2,4-diol]",10 to 100,–
"CCCCc1nc(O)c(S(=O)(=O)c2ccc(-c3ccncc3C)cc2)c(O)c1N1CCCCc2ccccc21 [Example 169, 6-butyl-3-((4-(3-methylpyridin-4-yl)phenyl)sulfonyl)-5-(2,3,4,5-tetrahydro-1H-benzo[b]azepin-1-yl)pyridine-2,4-diol]",10 to 100,–
"CCCCc1nc(O)c(S(=O)(=O)c2ccc(-n3cc(C)ccc3=O)cc2)c(O)c1N(CC)c1ccccc1 [Example 003, 1-(4-((6-butyl-5-(ethyl(phenyl)amino)-2,4-dihydroxypyridin-3-yl)sulfonyl)phenyl)-5-methylpyridin-2(1H)-one]",–,EC50 [3]: 0.01 to 10 nM
"CCN(c1ccccc1)c1c(-c2ccn(C)n2)nc(O)c(C(=O)N2CCC(c3ccc(Cl)cn3)C2)c1O (single isomer, unassigned) [Example 199, (3-(5-chloropyridin-2-yl)pyrrolidin-1-yl)(5-(ethyl(phenyl)amino)-2,4-dihydroxy-6-(1-methyl-1H-pyrazol-3-yl)pyridin-3-yl)methanone]",–,EC50 [3]: 0.01 to 10 nM
"CCN(c1ccccc1)c1c(CC2CC2)nc(O)c(S(=O)(=O)c2ccc(-c3ccccc3C(=O)N(C)C)cc2)c1O [Example 062, 4′-((6-(cyclopropylmethyl)-5-(ethyl(phenyl)amino)-2,4-dihydroxypyridin-3-yl)sulfonyl)-N,N-dimethyl-[1,1′-biphenyl]-2-carboxamide]",0.01 to 10,–
"CCCCc1nc(O)c(S(=O)(=O)c2ccc(-n3cc(C)ccc3=O)cc2)c(O)c1N(C)c1ccc(C)cc1 [Example 098, 1-(4-((6-butyl-2,4-dihydroxy-5-(methyl(p-tolyl)amino)pyridin-3-yl)sulfonyl)phenyl)-5-methylpyridin-2(1H)-one]",0.01 to 10,–

# Further lines, with some results ahead:
EC50 [1] [nM],SMILES,other results
0.01 to 10,"CCCCc1nc(O)c(S(=O)(=O)c2ccc(-c3ccccc3C(=O)N(C)C)cc2)c(O)c1N(C)c1ccccc1C [Example 196, 4′-((6-butyl-2,4-dihydroxy-5-(methyl(o-tolyl)amino)pyridin-3-yl)sulfonyl)-N,N-dimethyl-[1,1′-biphenyl]-2-carboxamide]",–
10 to 100,"CCCCc1nc(O)c(S(=O)(=O)c2ccc(-c3ccc(F)nc3C)cc2)c(O)c1N(C)c1cccc(F)c1 [Example 109, 6-butyl-3-((4-(6-fluoro-2-methylpyridin-3-yl)phenyl)sulfonyl)-5-((3-fluorophenyl)(methyl)amino)pyridine-2,4-diol]",–
0.01 to 10,CCCCc1nc(O)c(S(=O)(=O)c2ccc(-c3ccnc(F)c3C)cc2)c(O)c1N(c1ccccc1)C(C)C [Example 020],–
0.01 to 10,"CCCCc1nc(O)c(S(=O)(=O)c2ccc(-c3ccnc(F)c3C)cc2)c(O)c1N(C)c1ccccc1F [Example 125, 6-butyl-3-((4-(2-fluoro-3-methylpyridin-4-yl)phenyl)sulfonyl)-5-((2-fluorophenyl)(methyl)amino)pyridine-2,4-diol]",–
0.01 to 10,"CCN(c1ccccc1)c1c(-c2cnc(C)s2)nc(O)c(S(=O)(=O)c2ccc(-c3ccncc3C)cc2)c1O [Example 187, 5-(ethyl(phenyl)amino)-3-((4-(3-methylpyridin-4-yl)phenyl)sulfonyl)-6-(2-methylthiazol-5-yl)pyridine-2,4-diol]",–
10 to 100,"CCCCc1nc(O)c(S(=O)(=O)c2ccc(-c3ccncc3C)cc2)c(O)c1N(C)c1cccc(OC)c1 [Example 031, 6-butyl-5-((3-methoxyphenyl)(methyl)amino)-3-((4-(3-methylpyridin-4-yl)phenyl)sulfonyl)pyridine-2,4-diol]",–
0.01 to 10,"CCCCc1nc(O)c(S(=O)(=O)c2ccc(-c3ccccc3COC)cc2)c(O)c1N(CC)c1ccccc1 [Example 087, 6-butyl-5-(ethyl(phenyl)amino)-3-((2′-(methoxymethyl)-[1,1′-biphenyl]-4-yl)sulfonyl)pyridine-2,4-diol]",–
0.01 to 10,"Cc1nc(F)ccc1-c1ccc(S(=O)(=O)c2c(O)nc(-c3ccn(C)n3)c(N(c3ccccc3)C(C)C)c2O)cc1 [Example 157, 3-((4-(6-fluoro-2-methylpyridin-3-yl)phenyl)sulfonyl)-5-(isopropyl(phen-yl)amino)-6-(1-methyl-1H-pyrazol-3-yl)pyridine-2,4-diol]",–
0.01 to 10,"CCCCc1nc(O)c(S(=O)(=O)c2ccc(-c3cccnc3C)cc2)c(O)c1N(C)c1cccc(C)c1 [Example 096, 6-butyl-5-(methyl(m-tolyl)amino)-3-((4-(2-methylpyridin-3-yl)phenyl)sulfonyl)pyridine-2,4-diol]",–
0.01 to 10,"CCCCc1nc(O)c(S(=O)(=O)c2ccc(-c3ccc(F)nc3C)cc2)c(O)c1N(CC)c1ccccc1 [Example 086, 6-butyl-5-(ethyl(phenyl)amino)-3-((4-(6-fluoro-2-methylpyridin-3-yl)phenyl)sulfonyl)pyridine-2,4-diol]",–
0.01 to 10,"CCCCc1nc(O)c(S(=O)(=O)c2ccc(-c3ccnc(F)c3C)cc2)c(O)c1N(CC)c1cccc(C#N)c1 [Example 172, 3-((2-butyl-5-((4-(2-fluoro-3-methylpyridin-4-yl)phenyl)sulfonyl)-4,6-dihydroxypyridin-3-yl)(ethyl)amino)benzonitrile]",–
0.01 to 10,"CCCCc1nc(O)c(S(=O)(=O)c2ccc(-c3cccnc3C)cc2)c(O)c1N(C)c1ccc(Cl)cc1 [Example 111, 6-butyl-5-((4-chlorophenyl)(methyl)amino)-3-((4-(2-methylpyridin-3-yl)phenyl)sulfonyl)pyridine-2,4-diol]",–
0.01 to 10,"CCCCc1nc(O)c(S(=O)(=O)c2ccc(-c3ccncc3C)cc2)c(O)c1N(C)c1ccc(Cl)cc1 [Example 108, 6-butyl-5-((4-chlorophenyl)(methyl)amino)-3-((4-(3-methylpyridin-4-yl)phenyl)sulfonyl)pyridine-2,4-diol]",–
10 to 100,"CCCCc1nc(O)c(S(=O)(=O)c2ccc(-c3cccnc3C)cc2)c(O)c1N1CCCOc2ccccc21 [Example 123, 6-butyl-5-(3,4-dihydrobenzo[b][1,4]oxazepin-5(2H)-yl)-3-((4-(2-methylpyridin-3-yl)phenyl)sulfonyl)pyridine-2,4-diol]",–
10 to 100,"CCCCc1nc(O)c(S(=O)(=O)c2ccc(-c3ccc(F)nc3C)cc2)c(O)c1N(C)c1ccc(OC)cc1 [Example 032, 6-butyl-3-((4-(6-fluoro-2-methylpyridin-3-yl)phenyl)sulfonyl)-5-((4-methoxyphenyl)(methyl)amino)pyridine-2,4-diol]",–
0.01 to 10,"CCCCc1nc(O)c(S(=O)(=O)c2ccc(-c3ccc(F)nc3C)cc2)c(O)c1N(C)c1cccc(C#N)c1 [Example 117, 3-((2-butyl-5-((4-(6-fluoro-2-methylpyridin-3-yl)phenyl)sulfonyl)-4,6-dihydroxypyridin-3-yl)(methyl)amino)benzonitrile]",–
